Results taken from patent US20110105389A1 (priority 2009, published 2011).

What was measured:
[1] = target: T1, GHS-R1a receptor (HEK293 cells expressing GHS-R1a receptor) (Homo sapiens, UniProt Q92847); test: Fluorescence functional assay (ghrelin receptor), Method B2, agonist and antagonist mode; format: cell-based; details: functional activity as an antagonist at the ghrelin receptor, Methods B2 and B3
T1 construct: host or cells: HEK293
Procedure: • 1. ImageTrak Epi-Fluorescence system (Perkin-Elmer) • 2. MultiDrop TiterTek • 3. CO2 incubators: 5% CO2, humidified, 37° C.
• 1. Hanks' BSS without phenol red (Life Technologies) • 2. Hepes buffer • 3. Probenecid (Sigma) • 4. […] Falcon cell culture 96-well black/clear bottom plates • 6. 0.05% trypsin-EDTA • 7. Cells: HEK293 cells expressing GHS-R1a receptor (Perkin-Elmer BioSignal) were grown in DMEM (Dulbecco's Modified Eagles Medium) with 10% FBS, 1% sodium pyruvate, 1% NEAA and 400 μg/mL geneticin • 8. […] [D-Lys^3]-GHRP-6 (reference antagonist, Phoenix #031-22) • 10. Assay buffer: HBSS-20 mM Hepes containing 2.5 mM probenecid and 0.1% BSA (bovine serum albumin); pH 7.4
Stock solutions of compounds (10 mM in 100% DMSO) were provided frozen on dry ice and stored at −80° C. prior to use. […] Assay plates were then prepared by appropriate dilution in assay buffer.
Typical Final Test Concentrations (N=10) for Test Compounds (agonist):
Typical Final Test Concentrations (N=10) for Test Compounds (antagonist):
Cells were maintained in culture as indicated above. The cells were harvested at a confluency of 70-90% the day before the experiment. Growth medium was removed and the cells rinsed briefly with PBS without Ca^+2 and Mg^+2. 0.05% Trypsin was added and the plates incubated at 37° C. for 5 min to detach the cells. DMEM medium supplemented with 10% FBS was added to inactivate the trypsin and determine the cell concentration. The inoculum was adjusted to a final concentration of 200 cells/μL and dispensed at 200 μL per well into a 96-well block plate. The plates were, incubated at 37° C. overnight.
The plates were removed from the incubator and the media removed by inversion of the plates. Calcium-3 dye, 50 μL, was loaded and then incubated for 1 h at 37° C. The plate was again inverted and then 25 μL of assay buffer added. The plates were then transferred to the ImageTrak system for analysis. For agonist testing, after reading for ten (10) sec, 25 μL of 2× test compound or control was injected into the assay plate. Fluorescence was monitored for an additional 50 sec. A reading was taken every two (2) seconds for a total of 30 readings per assay point.
For antagonist testing, after reading for ten (10) sec, 12.5 μL of 3× test compound or control was injected into the assay plate and allowed to react for three (3) min.
Concentration response curves were analyzed using GraphPad Prism (GraphPad Software, San Diego, Calif.) by non-linear regression analysis (sigmoidal dose-response). EC50 values are calculated using GraphPad.
Emax values were calculated using the following formula: […]
Concentration response curves were analyzed using GraphPad Prism (GraphPad Software, San Diego, Calif.) by non-linear regression analysis (sigmoidal dose-response). IC50 values are calculated using GraphPad.
Imax values were calculated using the following formula: […]

[2] = Pharmacokinetic analysis (intravenous and oral), Method B9; format: in vivo; details: Table 10b
Description: B9. Pharmacokinetic Analysis
The pharmacokinetic (PK) behavior of compounds of the invention and their pharmaceutical compositions can be ascertained by methods well known to those skilled in the art and can be used to investigate the pharmacokinetic parameters (elimination half-life, total plasma clearance, etc.) for intravenous, subcutaneous and oral administration of these substances. (Wilkinson, G. R. “Pharmacokinetics: The Dynamics of Drug Absorption, Distribution, and Elimination” in Goodman & Gilman's The Pharmacological Basis of Therapeutics, Tenth Edition, Hardman, J. G.; Limbird, L. E., Eds., McGraw Hill, Columbus, Ohio, 2001, Chapter 1.) See also U.S. Pat. Nos. 7,476,653; 7,491,695; Intl. Pat. Appl. WO 2008/033328 and U.S. Patent Appl. Publ. 2008/0194672. As an example, compound 1505 has the PK profile below.
The determination of PK parameters for additional representative compounds of the invention is presented in the Examples.
A detailed analysis of the pharmacokinetic profile of representative compounds of the invention was conducted using the procedures outlined in Method B9.
A dose level of 2 mg/mL for intravenous administration and 8 mg/mL for oral administration were typically employed.

[3] = target: T2, human ghrelin receptor (GRLN, growth hormone secretagogue receptor, hGHS-R1a) (Homo sapiens, UniProt Q92847); test: Competitive radioligand binding assay (ghrelin receptor), Method B1; details: Ghrelin receptor binding activity, Method B1
T2 construct: purchased PerkinElmer BioSignal #RBHGHSM, lot#1887; host or cells: HEK-293 cells, stably transfected (membranes)
T2 sequence (Q92847 whole entry): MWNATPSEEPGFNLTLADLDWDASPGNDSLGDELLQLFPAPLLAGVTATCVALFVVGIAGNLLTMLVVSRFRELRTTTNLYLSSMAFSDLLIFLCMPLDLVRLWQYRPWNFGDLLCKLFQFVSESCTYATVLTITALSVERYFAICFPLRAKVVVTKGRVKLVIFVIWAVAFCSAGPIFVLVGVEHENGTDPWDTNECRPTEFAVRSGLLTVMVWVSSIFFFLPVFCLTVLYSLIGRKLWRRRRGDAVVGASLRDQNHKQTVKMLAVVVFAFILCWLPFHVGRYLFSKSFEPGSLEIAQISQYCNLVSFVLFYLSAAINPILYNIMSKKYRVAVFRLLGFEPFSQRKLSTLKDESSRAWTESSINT
Outline: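 Membranes incubated with compound 30 min at rt in 25 mM Hepes pH 7.4, 1 mM CaCl2, 5 mM MgCl2, 2.5 mM EDTA, 0.4% BSA, max 0.1% DMSO; filtered on PEI-soaked GF/C, washed with cold Tris, scintillation counted. Curves fitted by variable-slope non-linear regression.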

[4] = target: T3, ghrelin receptor (HEK-GHSR1 stable cells) (Homo sapiens, UniProt Q92847); test: Ghrelin receptor inverse agonist assay (HTRF IP-one), Method B4; format: cell-based; details: inverse agonist at the ghrelin receptor, Method B4
T3 construct: expressed in transfected cells
T3 sequence (Q92847 whole entry): as above
Description: B4. Ghrelin Receptor Inverse Agonist Assay […]
In addition, the following method can be utilized to assay for inverse agonist activity. (Thomsen, W.; et al. Curr. Opin. Biotechnol. 2005, 16, 655-665; Tozawa-Takahashi F; et al., 11th SBS Annual Conference. September 2005, Geneva; Trinquet, E.; Fink, M.; Bazin, H.; et al. Anal. Biochem. 2006, 358, 126-135; Bergsdorf, C.; Kropp-Goerkis, C.; Kaehler, I.; Ketscher, L.; Boerner, U.; Parczyk, K.; Bader, B. Assay Drug Dev. Technol. 2008, 6, 39-53.)
• 1. Remove culture medium from the plate by inversion. • 2. Add 70 μl of compound/well. • 3. Incubate 30 min at 37° C. • 4. Stop the reaction by adding 15 μl of lysis buffer/well. • 5. Add 15 μl of d2/well. • 6. Add 15 μl of Anti-IP1 cryptate/well. • 7. Incubate 1 h at room temp on an orbital shaker at 100 RPM. • 8. Read the fluorescence in a plate reader (Tecan GeniosPro or similar)
The above sequence was performed using the HTRF IP-one kit (CisBio cat#62P1APEC). For the simultaneous assay of multiple test compounds, 96-well plates can be utilized in this assay (white plate with flat-bottom well, Falcon #353296). These were seeded overnight with 100 000 of HEK-GHSR1 stable cells/well. • Wells A1 and A2 of each plate are used as negative control (wells without d2). Compounds are typically tested in replicate at the following concentrations:
Compounds are stored at 10 mM in 100% DMSO.
1st dilution 1/10 in 100% DMSO (1 mM final concentration).
2nd dilution 1/10 in H2O (0.1 mM final concentration).
Other dilutions are performed in a 96-well plate in stimulation buffer.
The results for representative compounds of the invention are provided in the Examples.

[5] = 2 mg/mL intravenous typically employed

T1 sequence (Q92847 whole entry): as above

Antagonist Activity [1]	% F ([2]; 2 mg/mL intravenous and 8 mg/mL oral typically employed) [%]	Cl [2, 5] [mL/min/kg]	t1/2 [2, 5] [h]	IC50 [3] [nM]	IC50 [4] [nM]	SMILES
C (C = 10-100 nM)	50 ± 14	6 ± 2	2.77 ± 0.033	10 to 100	100 to 500	CCC1CCc2ccc(F)cc2OC(C)CNC(C2(C)CC2)C(=O)N(C)C(C(C)O)C(=O)NC(Cc2ccccc2)C(=O)N1 (centres unmarked) [Compound 1705]
B (B = 1-10 nM)	–	–	–	10 to 100	50 to 100	CC[C@@H]1CCc2ccc(F)cc2OCCN[C@@H](C2(C)CC2)C(=O)N(C)[C@@H](C(C)O)C(=O)N[C@H](Cc2cccc(F)c2)C(=O)N1 (some centres unmarked) [Compound 1747]
B (B = 1-10 nM)	–	–	–	10 to 100	50 to 100	CC[C@@H]1CCc2ccc(F)cc2OCCN[C@@H](C(C)C)C(=O)N(C)[C@@H](C(C)O)C(=O)N[C@H](Cc2ccc(Cl)cc2)C(=O)N1 (some centres unmarked) [Compound 1753]
–	–	–	–	1 to 10	10 to 50	CC1CCc2ccccc2OCCNC(C(C)(C)C)C(=O)N(C)C(C(C)O)C(=O)NC(Cc2cccc(F)c2)C(=O)N1 (centres unmarked) [Compound 1796]
–	–	–	–	10 to 100	100 to 500	CC(O)C1C(=O)NC(Cc2ccccc2)C(=O)NCC2CCc3cccc(c3C2)OCCNC(C2CCCCC2)C(=O)N1C (centres unmarked) [Compound 1797]
–	–	–	–	1 to 10	100 to 500	CCC(C)C1NCCOc2cccc3c2CC(CC3)CNC(=O)C(Cc2ccccc2)NC(=O)C(C(C)O)N(C)C1=O (centres unmarked) [Compound 1798]
C (C = 10-100 nM)	–	–	–	1 to 10	50 to 100	CCC(C)C1NCCOc2cccc(F)c2C=CCNC(=O)C(Cc2ccc(Cl)cc2)NC(=O)C(C(C)O)N(C)C1=O (centres unmarked) [Compound 1799]
B (B = 1-10 nM)	–	–	–	1 to 10	10 to 50	CC1CCc2ccccc2OCCNC(C(C)C)C(=O)N(C)C(C(C)O)C(=O)NC(Cc2c[nH]c3ccc(F)cc23)C(=O)N1 (centres unmarked) [Compound 1801]
–	–	–	–	1 to 10	10 to 50	Cc1ccc2[nH]cc(CC3NC(=O)C(C(C)O)N(C)C(=O)C(C(C)C)NCCOc4ccccc4CCC(C)NC3=O)c2c1 (centres unmarked) [Compound 1802]
C (C = 10-100 nM)	–	–	–	10 to 100	100 to 500	CCC1CCc2ccc(F)cc2OCCNC(C(C)C)C(=O)N(C)C(C(C)O)C(=O)NC(C(C)c2ccccc2)C(=O)N1 (centres unmarked) [Compound 1805]
C (C = 10-100 nM)	–	–	–	10 to 100	100 to 500	CCC1CCc2ccc(Cl)cc2OCCNC(C(C)C)C(=O)N(C)C(C(C)O)C(=O)NC(Cc2c[nH]c3ccccc23)C(=O)N1 (centres unmarked) [Compound 1806]
B (B = 1-10 nM)	–	–	–	1 to 10	10 to 50	CCC1CCc2ccccc2OCCNC(C(C)C)C(=O)N(C)C(C(C)O)C(=O)NC(Cc2c[nH]c3ccc(F)cc23)C(=O)N1 (centres unmarked) [Compound 1808]
–	–	–	–	10 to 100	100 to 500	CC(C)C1NCCOc2cccc(F)c2C=CCNC(=O)C(C(C)c2ccccc2)NC(=O)C(C(C)O)N(C)C1=O (centres unmarked) [Compound 1811]
C (C = 10-100 nM)	–	–	–	10 to 100	50 to 100	CCC1CCc2ccc(F)cc2OCCNC(C(C)C)C(=O)N(C)C(C(C)O)C(=O)NC(Cc2cn(S(=O)(=O)c3ccc(C)cc3)c3ccccc23)C(=O)N1 (centres unmarked) [Compound 1812]
–	–	–	–	100 to 500	100 to 500	CCC1CCc2ccc(Cl)cc2OCCNC(C(C)C)C(=O)N(C)C(C(C)O)C(=O)NC(Cc2ccccc2)C(=O)N1 (centres unmarked) [Compound 1813]
–	–	–	–	100 to 500	100 to 500	CCC1CCc2ccc(Cl)cc2OCCNC(C(C)C)C(=O)N(C)C(C(C)O)C(=O)NC(Cc2cccc(F)c2)C(=O)N1 (centres unmarked) [Compound 1814]
–	–	–	–	10 to 100	100 to 500	CCC1CCc2ccc(F)cc2OCCNC(C(C)C)C(=O)N(C)C(C(C)O)C(=O)NC(Cc2ccco2)C(=O)N1 (centres unmarked) [Compound 1824]
–	–	–	–	10 to 100	100 to 500	CCC(C)C1NCCOc2ccccc2C=CCNC(=O)C(Cc2c[nH]c3ccc(F)cc23)NC(=O)C(C(C)O)N(C)C1=O (centres unmarked) [Compound 1827]
–	–	–	–	10 to 100	100 to 500	CCC1CCc2ccc(F)cc2OCCNC(CC)C(=O)N(C)C(C(C)O)C(=O)NC(Cc2c[nH]c3ccccc23)C(=O)N1 (centres unmarked) [Compound 1853]
–	–	–	–	100 to 500	100 to 500	CCC1CCc2ccc(F)cc2OCCNC(CC)C(=O)N(C)C(C(C)O)C(=O)NC(Cc2ccccc2)C(=O)N1 (centres unmarked) [Compound 1854]
–	–	–	–	10 to 100	100 to 500	CCC1CCc2ccc(F)cc2OCCNC(CC)C(=O)N(C)C(C(C)O)C(=O)NC(Cc2ccc(F)cc2)C(=O)N1 (centres unmarked) [Compound 1855]
–	–	–	–	1 to 10	10 to 50	CC(O)[C@H]1C(=O)N[C@H](Cc2ccc(Cl)cc2)C(=O)N[C@H](C)CCc2ccc(F)cc2OCCN[C@@H](C2(C)CC2)C(=O)N1C (some centres unmarked) [Compound 1872]
–	–	–	–	1 to 10	50 to 100	CC[C@@H]1CCc2ccc(F)cc2OCCN[C@@H](C2(C)CC2)C(=O)N(C)[C@@H](C(C)O)C(=O)N[C@H](Cc2ccc(Cl)cc2)C(=O)N1 (some centres unmarked) [Compound 1875]
–	–	–	–	10 to 100	10 to 50	CC(O)[C@H]1C(=O)N[C@H](Cc2ccc(F)cc2)C(=O)NCC#Cc2ccccc2OCCN[C@@H](C2(C)CC2)C(=O)N1C (some centres unmarked) [Compound 1879]
–	–	–	–	1 to 10	10 to 50	CC(O)[C@H]1C(=O)N[C@H](Cc2ccc(F)cc2)C(=O)NCC#Cc2c(F)cccc2OCCN[C@@H](C2(C)CC2)C(=O)N1C (some centres unmarked) [Compound 1884]
